Source: patent US20150374646A1, “TREATMENT OF CANCER AND OTHER CONDITIONS USING A TRANSCRIPTION FACTOR MODULATOR” (C & C BIOPHARMA, LLC, priority 2013, published 2015)

Legend:
Type in all cases: cell-based
[1] = test system: SN12C; test: Cancer cell line growth inhibition, CellTiter-Glo (Example 3); settings: Homo sapiens, Renal, 72 hours, read-out: IC50
Description: (§1) YT30 was tested for growth inhibition against 67 human cancer cell lines derived from diverse tissues including the National Cancer Institute human cancer cell lines (NCI-60). […] Cells in different wells were treated with various concentrations of YT30, YT86, YT88, or YT128. […] Cell viabilities were determined by the CellTiter-Glo Luminescence Cell Viability assay kit (Promega Corporation, Madison, Wis.) according to manufacturer's protocol.

[2] = test system: CCRF-CEM; test: as above; settings: Homo sapiens, Leukemia, 72 hours, read-out: IC50
Description: as §1

[3] = test system: SK-MEL-28; test: as above; settings: Homo sapiens, Melanoma, 72 hours
Description: as §1

[4] = test system: NCI-H23; test: as above; settings: Homo sapiens, NSCLC, 72 hours
Description: as §1

[5] = test system: RPMI-8226; test: as above; settings: Homo sapiens, Leukemia, 72 hours
Description: as §1

[6] = test system: HeLa; test: as above; settings: Homo sapiens, Cervical, 72 hours, read-out: IC50
Description: as §1

[7] = test system: Colo 205; test: as above; settings: Homo sapiens, Colon, 72 hours
Description: as §1

[8] = test system: UO-31; test: as above; settings: Homo sapiens, Renal, 72 hours, read-out: IC50
Description: as §1

[9] = test system: HepG2; test: as above; settings: Homo sapiens, Liver, 72 hours
Description: as §1

[10] = test system: HCT116; test: as above; settings: Homo sapiens, HCT-116, Colon, 72 hours
Description: as §1

[11] = test system: UACC-257; test: as above; settings: Homo sapiens, Melanoma, 72 hours
Description: as §1

[12] = test system: EKVX; test: as above; settings: Homo sapiens, NSCLC, 72 hours
Description: as §1

[13] = test system: SR; test: as above; settings: Homo sapiens, Leukemia, 72 hours, read-out: IC50
Description: as §1

[14] = test system: HL60; test: as above; settings: Homo sapiens, HL-60, Leukemia, 72 hours, read-out: IC50
Description: as §1

[15] = test system: K562; test: as above; settings: Homo sapiens, Leukemia, 72 hours, read-out: IC50
Description: as §1

[16] = test system: SEM cells; test: as above; settings: Homo sapiens, Leukemia, 72 hours
Description: as §1

[17] = test system: SF-295; test: as above; settings: Homo sapiens, CNS, 72 hours, read-out: IC50
Description: as §1

[18] = test system: NCI-H226; test: as above; settings: Homo sapiens, NSCLC, 72 hours
Description: as §1

[19] = test system: A498; test: as above; settings: Homo sapiens, Renal, 72 hours, read-out: IC50
Description: as §1

[20] = test system: SK-MEL-5; test: as above; settings: Homo sapiens, Melanoma, 72 hours
Description: as §1

[21] = test system: CAK1; test: as above; settings: Homo sapiens, Renal, 72 hours
Description: as §1

[22] = test system: MCF7; test: as above; settings: Homo sapiens, Breast, 72 hours, read-out: IC50
Description: as §1

[23] = test system: LOX IMVI; test: as above; settings: Homo sapiens, Melanoma, 72 hours
Description: as §1

[24] = test system: HS 578T; test: as above; settings: Homo sapiens, Breast, 72 hours, read-out: IC50
Description: as §1

[25] = test system: HOP-92; test: as above; settings: Homo sapiens, NSCLC, 72 hours
Description: as §1

[26] = test system: siHa; test: as above; settings: Homo sapiens, Cervical, 72 hours, read-out: IC50
Description: as §1

[27] = test system: U251; test: as above; settings: Homo sapiens, U-251, CNS, 72 hours, read-out: IC50
Description: as §1

[28] = test system: NCI-H460; test: as above; settings: Homo sapiens, NSCLC, 72 hours
Description: as §1

[29] = test system: MALME-3M; test: as above; settings: Homo sapiens, Melanoma, 72 hours
Description: as §1

[30] = test system: UACC-62; test: as above; settings: Homo sapiens, Melanoma, 72 hours
Description: as §1

[31] = test system: TK-10; test: as above; settings: Homo sapiens, Renal, 72 hours, read-out: IC50
Description: as §1

[32] = test system: ACHN; test: as above; settings: Homo sapiens, Renal, 72 hours
Description: as §1

[33] = test system: OVCAR-8; test: as above; settings: Homo sapiens, Ovary, 72 hours
Description: as §1

[34] = test system: A549; test: as above; settings: Homo sapiens, NSCLC, 72 hours, read-out: IC50
Description: as §1

[35] = test system: HOP-62; test: as above; settings: Homo sapiens, NSCLC, 72 hours
Description: as §1

[36] = test system: MDA-MB-435; test: as above; settings: Homo sapiens, Melanoma, 72 hours, read-out: IC50
Description: as §1

[37] = test system: SK-OV-3; test: as above; settings: Homo sapiens, Ovary, 72 hours
Description: as §1

[38] = test system: NCI-H522; test: as above; settings: Homo sapiens, NSCLC, 72 hours
Description: as §1

[39] = test system: OVCAR-5; test: as above; settings: Homo sapiens, Ovary, 72 hours, read-out: IC50
Description: as §1

[40] = test system: OVCAR-3; test: as above; settings: Homo sapiens, Ovary, 72 hours, read-out: IC50
Description: as §1

[41] = test system: Caski; test: as above; settings: Homo sapiens, Ca-Ski, Cervical, 72 hours, read-out: IC50
Description: as §1

[42] = test system: MOLT-4; test: as above; settings: Homo sapiens, Leukemia, 72 hours, read-out: IC50
Description: as §1

[43] = test system: RCH-HCV; test: as above; settings: Homo sapiens, Leukemia, 72 hours
Description: as §1

[44] = test system: MOLT-4; test: Leukemia cell growth inhibition, CellTiter-Glo (Example 1); settings: Homo sapiens; MOLT-4, ALL (T-cell); 72 hours
Description: Various human leukemia cells were grown to the logarithmic growth phase and seeded into 24-well plates. […] Treated cells were further incubated for 72 hours and then were examined for cell proliferation. Cell proliferation was determined using the CellTiter-Glo Luminescence Cell Viability assay (Promega Corporation, Madison, Wis.) according to the manufacturer's protocol. The calculated inhibition rate was determined with the following formula: Inhibition rate (%)=(1−Luminescence of experimental group/Luminescence of control group)×100. IC50 is the calculated concentration of a compound needed to inhibit half of the maximum cell growth (equivalent to cell growth in control group) based on the corresponding dose-response curve under the described experimental conditions.

## Nc1ccccc1NC(=O)CCCCCC(=O)Nc1cccc(Br)c1 [YT30]
[1]
  IC50: 9.52 µM
[2]
  IC50: 1.53 µM
[3]
  IC50: 5.99 µM
[4]
  IC50: 11 µM
[5]
  IC50: 2 µM
[6]
  IC50: 4.3 µM
[7]
  IC50: 14.4 µM
[8]
  IC50: 10.7 µM
[9]
  IC50: 12.7 µM
[10]
  IC50: 13 µM
[11]
  IC50: 6.1 µM
[12]
  IC50: 4.57 µM
[13]
  IC50: 6.89 µM
[14]
  IC50: 1.04 µM
[15]
  IC50: 1.82 µM
[16]
  IC50: 1.15 µM
[17]
  IC50: 10.3 µM
[18]
  IC50: 12.7 µM
[19]
  IC50: 13.9 µM
[20]
  IC50: 3.87 µM
[21]
  IC50: 11.7 µM
[22]
  IC50: 6.84 µM
[23]
  IC50: 3.03 µM
[24]
  IC50: 10.8 µM
[25]
  IC50: 11 µM
[26]
  IC50: 13.1 µM
[27]
  IC50: 7.36 µM
[28]
  IC50: 5.41 µM
[29]
  IC50: 5.84 µM
[30]
  IC50: 5.2 µM
[31]
  IC50: 16.1 µM
[32]
  IC50: 12.5 µM
[33]
  IC50: 6.74 µM
[34]
  IC50: 3.41 µM
[35]
  IC50: 29.6 µM
[36]
  IC50: 10.4 µM
[37]
  IC50: 8.09 µM
[38]
  IC50: 8.15 µM
[39]
  IC50: 11.9 µM
[40]
  IC50: 9.17 µM
[41]
  IC50: 5 µM
[42]
  IC50: 1.13 µM
[43]
  IC50: 0.79 µM
[44]
  IC50: 1.13 µM
